The values that follow come from ChEMBL document CHEMBL5260792, “Benzophenone: a ubiquitous scaffold in medicinal chemistry” (Medchemcomm, 2018).

Converted amounts (≈) assume the structure as drawn. Some results are limits rather than exact numbers.

Data set [1] is described as follows: Anti-inflammatory activity in human PBMC cells assessed as inhibition of LPS-induced […] production. The data set is classed as functional, cell-based.
Data set [2] is described as follows: Anti-inflammatory activity in human PBMC cells assessed as inhibition of LPS-induced TNF-alpha production. The data set is classed as functional, cell-based.
In data set [3] the test system is Human immunodeficiency virus 1. Description: Antiviral activity against HIV-1. The data set is classed as functional, organism-based.
Data set [4] has as its target T1, Glutathione S-transferase A1 (Homo sapiens, UniProt P08263).
T1 sequence (P08263 whole entry): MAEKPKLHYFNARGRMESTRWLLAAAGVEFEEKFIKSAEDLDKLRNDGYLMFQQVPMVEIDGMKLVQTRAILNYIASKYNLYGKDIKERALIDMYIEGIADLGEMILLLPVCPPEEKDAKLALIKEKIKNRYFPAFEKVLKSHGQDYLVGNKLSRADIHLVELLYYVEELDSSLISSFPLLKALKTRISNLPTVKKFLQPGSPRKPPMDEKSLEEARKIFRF
Description: Inhibition of recombinant human GSTA1-1.

The test system of the next data set is K562. The data set is described as follows: Antiproliferative activity against human K562 cells assessed as reduction in cell viability by MTT assay. The data set is classed as functional, cell-based.
The subject of another data set is CCRF-CEM. Description: Antiproliferative activity against human CEM cells assessed as reduction in cell viability by MTT assay. The data set is classed as functional, cell-based. In general terms: Formazan colour is commonly taken as a measure of viable cells.
Data set [5] has as its system Human immunodeficiency virus 1. Description: Antiviral activity against HIV-1 E138K mutant. It is filed as functional, organism-based.
Data set [6] has as its system Human immunodeficiency virus 1. The data set is described as follows: Antiviral activity against HIV-1 Y188C mutant. It is filed as functional, organism-based.
Data set [7] deals with Human immunodeficiency virus 1. The data set is described as follows: Antiviral activity against HIV-1 harboring V108I/Y181C double mutant. The data set is classed as functional, organism-based.
The subject of data set [8] is Human immunodeficiency virus 1. The data set is described as follows: Antiviral activity against HIV-1 L100I mutant. It is filed as functional, organism-based.
Data set [9] relates to Human immunodeficiency virus 1. Description: Antiviral activity against HIV-1 P225H mutant. It is filed as functional, organism-based.
In data set [10] the test system is Human immunodeficiency virus 1. Description: Antiviral activity against HIV-1 G190A mutant. It is filed as functional, organism-based.
For data set [11], the system named is Human immunodeficiency virus 1. The data set is described as follows: Antiviral activity against HIV-1 assessed as reduction in virus-induced cytopathic effect. It is filed as functional, organism-based.
Data set [12] relates to Human immunodeficiency virus 1. The data set is described as follows: Antiviral activity against HIV-1 V106I mutant. The data set is classed as functional, organism-based.
The test system of data set [13] is Human immunodeficiency virus 1. The data set is described as follows: Antiviral activity against HIV-1 K103N mutant. The data set is classed as functional, organism-based.
Data set [14] concerns Human immunodeficiency virus 1. The data set is described as follows: Antiviral activity against HIV-1 harboring K103N/P225H double mutant. The data set is classed as functional, organism-based.
The test system of data set [15] is Human immunodeficiency virus 1. Description: Antiviral activity against HIV-1 K101E mutant. The data set is classed as functional, organism-based.
Data set [16] concerns Human immunodeficiency virus 1. The data set is described as follows: Antiviral activity against HIV-1 V108I mutant. It is filed as functional, organism-based.
In data set [17] the test system is Human immunodeficiency virus 1. Description: Antiviral activity against HIV-1 harboring K103N/V108I double mutant. It is filed as functional, organism-based.
Data set [18] deals with Human immunodeficiency virus 1. The data set is described as follows: Antiviral activity against HIV-1 harboring K103N/Y181C double mutant. It is filed as functional, organism-based.
For data set [19], the system named is Human immunodeficiency virus 1. Description: Antiviral activity against HIV-1 P236L mutant. It is filed as functional, organism-based.
Data set [20] deals with Human immunodeficiency virus 1. Description: Antiviral activity against HIV-1 Y181C mutant. It is filed as functional, organism-based.
The test system of data set [21] is Human immunodeficiency virus 1. Description: Antiviral activity against HIV-1 harboring K103N/L100I double mutant. The data set is classed as functional, organism-based.
For another data set, the system named is MCF7. Description: Antiproliferative activity against human MCF7 cells. It is filed as functional, cell-based.
Data set [22] is described as follows: Inhibition of FTase (unknown origin) by Perkin elmer analysis. The arrangement: species or system Homo sapiens.
The subject of data set [23] is Plasmodium falciparum. Description: In vivo antiplasmodial activity against Plasmodium falciparum infected in mouse model. It is filed as functional.
Data set [24] concerns Plasmodium falciparum. The data set is described as follows: Antiplasmodial activity against Plasmodium falciparum assessed as reduction in parasite growth. It is filed as functional, organism-based.
The target of data set [25] is Mitogen-activated protein kinase 14 (Homo sapiens, UniProt Q16539). Description: Inhibition of P38alphaMAPK (unknown origin).
A short description of data set [26]: Cytotoxicity against human HUVEC cells assessed as inhibition of cell growth. The data set is classed as toxicity, cell-based.
The test system of data set [27] is Rattus norvegicus. The data set is described as follows: Anti-hyperlipidemic activity in rat assessed as reduction in total cholesterol level at 15 mg/kg, po measured after 18 hrs. The arrangement: scale not given: the % may be the effect or the level left. It is filed as functional.
Data set [28] deals with Rattus norvegicus. Description: Anti-hyperlipidemic activity in rat assessed as reduction in triglyceride level at 15 mg/kg, po measured after 18 hrs. Set-up: scale not given: the % may be the effect or the level left. It is filed as functional.
The test system of the next data set is Leishmania. The data set is described as follows: Antileishmanial activity against Leishmania assessed as reduction in parasite growth. It is filed as functional, organism-based.
A short description of data set [29]: Antiproliferative activity against mouse DLA cell expressing VEGF-A by MTT assay. The data set is classed as functional, cell-based.
Another data set deals with Ehrlich. The data set is described as follows: Antiproliferative activity against mouse EAC cell expressing VEGF-A by MTT assay. The data set is classed as functional, cell-based.

What is called IC50 is the midpoint of a concentration-inhibition curve. By EC50 is commonly meant the concentration at which the effect is half-maximal. By ED50 is commonly meant the dose at which the effect has come halfway, by size or by number of responders.

Sequence of Mitogen-activated protein kinase 14 (Q16539 whole entry): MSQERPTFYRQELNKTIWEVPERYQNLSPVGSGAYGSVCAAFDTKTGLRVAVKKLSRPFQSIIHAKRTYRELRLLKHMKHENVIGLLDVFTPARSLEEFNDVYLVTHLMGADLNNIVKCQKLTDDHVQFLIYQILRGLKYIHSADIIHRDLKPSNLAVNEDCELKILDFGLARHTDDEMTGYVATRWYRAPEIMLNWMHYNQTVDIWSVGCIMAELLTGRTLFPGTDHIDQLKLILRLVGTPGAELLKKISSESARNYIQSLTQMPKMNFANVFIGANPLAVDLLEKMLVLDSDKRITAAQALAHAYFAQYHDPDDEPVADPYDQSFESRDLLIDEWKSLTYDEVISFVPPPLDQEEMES

Regarding `Nc1ccccc1Nc1ccc(C(=O)c2ccccc2)cc1`, the IC50 in data set [1] amounted to 226 nM; in data set [2] it was 159 nM.
In turn, `Cc1cccc(C(=O)c2cc(Cl)ccc2OCC(=O)Nc2ccc([N+](=O)[O-])cc2C)c1` came in with an EC50 in [3] of 4.2 nM.
For `Cc1cc(F)ccc1Nc1ccc(C(=O)c2ccccc2C)c(Cl)c1`, the IC50 in data set [1] (Homo sapiens, PBMC) amounted to 14 nM; in data set [2] it was 4 nM.
On to `O=C(c1ccccc1O)c1cc(Br)ccc1O`, for which the half-maximal inhibitory concentration (IC50) in data set [4] was 180 nM.
For the compound `COc1ccc(C(=O)c2ccc(OCC(=O)N3CCC(CCCC4CCN(C(=S)c5ccc(Cl)cc5)CC4)CC3)cc2)c(OC)c1`, the half-maximal inhibitory concentration (IC50) in the data set with K562 and with CCRF-CEM was 1600 nM each time.
In data set [3], `Cc1cc(C)cc(C(=O)c2cc(Cl)ccc2OC(C)C(=O)Nc2ccc(S(N)(=O)=O)cc2)c1` (centres undefined) gave an EC50 of 2.9 nM.
As to `Cc1cc(S(N)(=O)=O)ccc1NC(=O)COc1ccc(Cl)cc1C(=O)c1cccc(C#N)c1`, the half-inhibitory concentration (IC50) in [5], in data set [6], in [7], in data set [8], in data set [9] and in data set [10] was less than 10 nM each time. The IC50 in data set [11] is less than 2 nM; in data set [12] it was less than 10 nM; in data set [13] it was less than 10 nM; in [14], less than 10 nM; in data set [15], less than 10 nM; in data set [16], less than 10 nM. The half-inhibitory concentration (IC50) in data set [17], in data set [18], in data set [19], in [20] and in data set [21] was less than 10 nM each time.
In the data set with MCF7, `Cc1cccc(C(=O)c2ccc(OCC(=O)NNC(=O)C3CN(Cc4ccccc4)CCO3)c(C)c2)c1` (centres undefined) displayed an IC50 of 9300 nM.
As to `CN(C)CCN(C)C(C(=O)Nc1ccc(NC(=O)/C=C/c2ccc(-c3ccc([N+](=O)[O-])cc3)o2)cc1C(=O)c1ccccc1)c1ccccc1` (centres undefined), the results for the IC50 (in [22]; in the data set with Plasmodium falciparum [24]) were 21 nM and 32 nM, respectively. In the data set with Plasmodium falciparum [23], this compound returned an ED50 of 16 mg/kg.
With `COc1ccc(C(=O)c2ccc(OCC(=O)N3CCC(CCCC4CCN(C(=O)c5ccc(Cl)cc5)CC4)CC3)cc2)c(OC)c1`, the 50% inhibitory concentration (IC50) in the data set on K562 and in the data set on CCRF-CEM was 1600 nM throughout.
On to `Cc1ccccc1C(=O)c1ccc(Nc2ccc(Br)cc2N)cc1Cl`, for which the IC50 in data set [1] (Homo sapiens, PBMC) was determined as 14 nM; in data set [2], 4 nM.
As for `Cc1cc(S(N)(=O)=O)ccc1NC(=O)COc1ccc(Cl)cc1C(=O)c1cc(F)cc(C(F)(F)F)c1`, the IC50 in [5], in [6], in [7], in data set [8], in data set [9] and in data set [10] was less than 10 nM each time. The IC50 in data set [11] is less than 2 nM; in data set [12], less than 10 nM; in data set [13], less than 10 nM; in data set [14] it was less than 10 nM; in data set [15] it was less than 10 nM; in data set [16], less than 10 nM. Further, the IC50 in [17], in data set [18], in data set [19], in data set [20] and in [21] was less than 10 nM throughout.
In [25], `COc1ccc(C#CC(C)(C)N)cc1C(=O)c1ccc(Nc2ccc(F)cc2F)cc1` gave a half-inhibitory concentration (IC50) of 14 nM.
For `CC(C)(C)c1[nH]cnc1/C=c1\[nH]c(=O)/c(=C/c2ccccc2)[nH]c1=O` [PLINABULIN], the IC50 in data set [26] amounted to 10 nM.
Take `O=C(c1ccccc1)c1cccc(NC(=O)c2ccc(-c3cccc(O)c3)o2)c1`: the Activity in the data set with Rattus norvegicus [27] was determined as 88%; in the data set with Rattus norvegicus [28] it was 84%.
Compound `Cc1cc(C(=O)c2cccc(Br)c2)ccc1OCC(=O)NNC(=O)C1CN(Cc2ccccc2)CCO1` (centres undefined) had a half-inhibitory concentration (IC50) in the data set with MCF7 of 7100 nM.
With `Cc1ccccc1C(=O)c1ccc(Nc2ccccc2N)cc1Cl`, the IC50 was 14 nM in [1] (Homo sapiens, PBMC) and 4 nM in [2].
In data set [25], `Cc1cc(C(=O)NC2CC2)ccc1-c1ccc(C(=O)c2cccc(CCC(O)CO)c2)cc1` (centres undefined) returned an IC50 of 27 nM.
`O=C(COc1ccc(C(=O)c2ccccc2)cc1)c1ccc(Cl)c(Cl)c1`: the IC50 in the data set with Leishmania amounted to 1.19 µg/mL (≈ 3.09 µM).
On to `COc1ccc(-c2csc(NC(=O)COc3ccc(C(=O)c4ccc(F)cc4C)cc3C)n2)cc1`, for which the IC50 (in [29]; in the data set on Ehrlich) was 5000 nM each time.
As to `Cc1cc(OCCCS(N)(=O)=O)ccc1NC(=O)COc1ccc(Cl)cc1C(=O)c1cc(F)cc(C(F)(F)F)c1`, the IC50 in data set [5], in [6], in data set [7], in [8], in data set [9] and in data set [10] was less than 10 nM each time. Also, the concentration for half-maximal inhibition (IC50) in data set [11] is less than 2 nM; in data set [12] it was less than 10 nM; in [13], less than 10 nM; in data set [14] it was less than 10 nM; in data set [15], less than 10 nM; in data set [16], less than 10 nM. For the same compound, the IC50 in [17], in data set [18], in data set [19], in data set [20] and in data set [21] was less than 10 nM in each case.
